Test results: patent US20250129095A1, “ANNULATED 2-AMINO-3-CYANO THIOPHENES AND DERIVATIVES FOR THE TREATMENT OF CANCER” (Boehringer Ingelheim Int'l GmbH Corp., priority 2021, published 2025)

Key:
[1] = Metabolic (microsomal) stability assay, human liver microsomes (HLM); type: in vitro ADME; conditions: 1 μM, predicted clearance as percent of liver blood flow
Procedure: The metabolic degradation of the test compound is assayed at 37° C. with pooled liver microsomes (mouse (MLM), rat (RLM) or human (HLM)). The final incubation volume of 48 μL per time point contains TRIS buffer (pH 7.5; 0.1 M), magnesium chloride (6.5 mM), microsomal protein (0.5 mg/mL for mouse/rat, 1 mg/mL for human specimens) and the test compound at a final concentration of 1 μM. Following a short preincubation period at 37° C., the reactions are initiated by addition of 12 μL beta-nicotinamide adenine dinucleotide phosphate, reduced form (NADPH, 10 mM) and terminated by transferring an aliquot into solvent after different time points (0, 5, 15, 30, 60 min). Additionally, the NADPH-independent degradation is monitored in incubations without NADPH, terminated at the last time point by addition of acetonitrile. The quenched incubations are pelleted by centrifugation (4,000 rpm, 15 min). An aliquot of the supernatant is assayed by LC-MS/MS to quantify the concentration of parent compound in the individual samples.
In vitro intrinsic clearance (CLint, in vitro) is calculated from the time course of the disappearance of the test drug during the microsomal incubation. Each plot is fitted to the first-order elimination rate constant as C(t)=C0*exp(−ke*t), where C(t) and C0 are the concentration of unchanged test drug at incubation time t and that at preincubation and ke is the disappearance rate constant of the unchanged drug. Subsequently, CLint, in vitro (μL min^−1·amount protein) values are converted to predicted CLint, in vitro (mL min^−1·kg^−1) from incubation parameters according to the equation CLint, in vitro=CLint, in vitro×(incubation volume (ml)/amount protein (mg))×(amount protein (mg)/g liver tissue)×(liver weight/body wt.). For better across species comparison the predicted clearance is expressed as percent of the liver blood flow [% QH](mL min^−1·kg^−1) in the individual species. In general, high stability (corresponding to low % QH) of the compounds across species is desired.

[2] = system: LOVO cells; experiment: LOVO CTG proliferation assay (120 h) (CRC, G13D); type: cell-based; conditions: Homo sapiens
Procedure: LOVO cells (ATCC CCL-229) are dispensed into 384-well plates, flat and clear bottom (Greiner, PNr. 781091) at a density of 1000 cells per well in 60 μL DMEM (Sigma D6429)+10% Fetal Calf Serum (HyClone, PNr.: SH30084.03) and incubated at 37° C. in a CO2 incubator overnight. The next day, compounds (10 mM stock in DMSO) are added with the ECHO acoustic liquid handler system (Beckman Coulter), including DMSO controls. Plates are incubated for 120 h, and cell viability is measured using CellTiter-Glo luminescent cell viability reagent (Promega product code G7570). Viability (stated as percent of control) is defined as relative luminescence units RLU of each well divided by the RLU of cells in DMS0 controls. IC50 values are determined from viability measurements by non-linear regression using a four-parameter model.

[3] = target: T1, CYP3A4 (Homo sapiens, UniProt P08684); experiment: Mechanism based inhibition of CYP3A4 assay (MBI 3A4); type: in vitro ADME; conditions: human liver microsomes, 25 uM, hydroxy-midazolam formation 30 min vs 0 min preincubation
T1 construct: from tissue; host or cells: human liver microsomes
T1 sequence (P08684 whole entry): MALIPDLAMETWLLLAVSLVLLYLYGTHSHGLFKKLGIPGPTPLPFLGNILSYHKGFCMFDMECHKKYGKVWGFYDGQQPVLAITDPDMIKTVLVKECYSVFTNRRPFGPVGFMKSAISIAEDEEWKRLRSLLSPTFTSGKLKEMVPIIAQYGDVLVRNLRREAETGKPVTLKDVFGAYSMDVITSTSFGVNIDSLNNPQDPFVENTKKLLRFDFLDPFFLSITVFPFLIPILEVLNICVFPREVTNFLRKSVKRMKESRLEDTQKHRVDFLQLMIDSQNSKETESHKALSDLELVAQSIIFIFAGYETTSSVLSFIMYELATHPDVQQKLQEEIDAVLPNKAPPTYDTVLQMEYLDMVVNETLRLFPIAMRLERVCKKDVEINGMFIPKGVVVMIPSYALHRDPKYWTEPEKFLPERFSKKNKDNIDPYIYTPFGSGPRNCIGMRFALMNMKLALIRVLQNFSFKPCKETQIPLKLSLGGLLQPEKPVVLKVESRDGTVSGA
Procedure: The time dependent inhibition towards CYP3A4 is assayed in human liver microsomes (0.02 mg/mL) with midazolam (15 μM) as a substrate. The test compounds and water control (wells w/o test compound) are preincubated in presence of NADPH (1 mM) with human liver microsomes (0.2 mg/mL) at a concentration of 25 uM for 0 min and 30 min. After preincubation, the incubate is diluted 1:10 and the substrate midazolam is added for the main incubation (15 min). The main incubation is quenched with acetonitrile and the formation of hydroxy-midazolam is quantified via LC/MS-MS. The formation of hydroxy-midazolam from the 30 min preincubation relative to the formation from the 0 min preincubation is used as a readout. Values of less than 100% mean that the substrate midazolam is metabolized to a lower extent upon 30 min preincubation compared to 0 min preincubation. In general low effects upon 30 min preincubation are desired (corresponding to values close to 100%/not different to the values determined with water control).

| SMILES | HLM QH [%] [1] [%] | IC50 [2] [µM] | MBI 3A4 [%] [3] [%] |
| --- | --- | --- | --- |
| C[C@H](Oc1cc(O[C@H]2CNC(C)(C)C2)nc(-c2noc3c2CCC[C@@]32CCCc3sc(N)c(C#N)c32)n1)[C@@H]1CCCN1C (single isomer, unassigned) [II-8] | <24 | 0.501 |  |
| C[C@H](Oc1cc(Oc2nccs2)nc(-c2onc3c2CCC[C@@]32CCCc3sc(N)c(C#N)c32)n1)[C@@H]1CCCN1C [Example I-1] | 44 | 0.054 |  |
| C[C@H](Oc1cc(Oc2cccnc2)nc(-c2onc3c2CCC[C@@]32CCCc3sc(N)c(C#N)c32)n1)[C@@H]1CCCN1C [Example I-2] | 70 | 0.032 |  |
| C[C@H](Oc1cc(Oc2cncnc2)nc(-c2onc3c2CCC[C@@]32CCCc3sc(N)c(C#N)c32)n1)[C@@H]1CCCN1C [Example I-3] | 69 | 0.035 |  |
| C[C@H](Oc1cc(N[C@H]2CCOC2)nc(-c2onc3c2CCC[C@@]32CCCc3sc(N)c(C#N)c32)n1)[C@@H]1CCCN1C [Example I-4] | 26 | 0.575 |  |
| COC[C@H](C)Nc1cc(O[C@@H](C)[C@@H]2CCCN2C)nc(-c2onc3c2CCC[C@@]32CCCc3sc(N)c(C#N)c32)n1 [Example I-5] | <24 |  | 61 |
| C[C@H](Oc1cc(Nc2ccccn2)nc(-c2onc3c2CCC[C@@]32CCCc3sc(N)c(C#N)c32)n1)[C@@H]1CCCN1C [Example I-6] | <24 | 0.595 |  |
| C[C@H](Oc1cc(Sc2ncccn2)nc(-c2onc3c2CCC[C@@]32CCCc3sc(N)c(C#N)c32)n1)[C@@H]1CCCN1C [Example I-7] | 38 | 3.24 |  |
| C[C@H](Oc1cc(OCC2(N(C)C)COC2)nc(-c2onc3c2CCC[C@@]32CCCc3sc(N)c(C#N)c32)n1)[C@@H]1CCCN1C [Example I-8] | 30 | 0.027 | 77 |
| C[C@H](Oc1cc(Oc2cncnc2)nc(-c2noc3c2CCC[C@@]32CCCc3sc(N)c(C#N)c32)n1)[C@@H]1CCCN1C [II-1] | <24 | 0.433 |  |
| C[C@H](Oc1cc(Oc2nccs2)nc(-c2noc3c2CCC[C@@]32CCCc3sc(N)c(C#N)c32)n1)[C@@H]1CCCN1C [II-2] | 46 | 0.053 | 40 |
| C[C@H](Oc1cc(Oc2ccon2)nc(-c2noc3c2CCC[C@@]32CCCc3sc(N)c(C#N)c32)n1)[C@@H]1CCCN1C [II-3] | 70 | 0.102 |  |
| C[C@H](Oc1cc(O[C@H]2CCOC2)nc(-c2noc3c2CCC[C@@]32CCCc3sc(N)c(C#N)c32)n1)[C@@H]1CCCN1C [II-4] | 59 | 0.093 | 58 |
| COCCOc1cc(O[C@@H](C)[C@@H]2CCCN2C)nc(-c2noc3c2CCC[C@@]32CCCc3sc(N)c(C#N)c32)n1 [II-5] | 31 | 0.117 | 69 |
| C[C@H](Oc1cc(OCCO)nc(-c2noc3c2CCC[C@@]32CCCc3sc(N)c(C#N)c32)n1)[C@@H]1CCCN1C [II-6] | 40 | 0.781 | 61 |
| C[C@H](Oc1cc(Oc2cnccn2)nc(-c2noc3c2CCC[C@@]32CCCc3sc(N)c(C#N)c32)n1)[C@@H]1CCCN1C [II-7] | 72 | 0.015 |  |
| C[C@H](Oc1cc(O[C@@H]2CNC2(C)C)nc(-c2noc3c2CCC[C@@]32CCCc3sc(N)c(C#N)c32)n1)[C@@H]1CCCN1C [II-9] | <24 | 0.099 | 72 |
| C[C@H](Oc1cc(N(C)C)nc(-c2noc3c2CCC[C@@]32CCCc3sc(N)c(C#N)c32)n1)[C@@H]1CCCN1C [II-10] | <24 | 4.08 |  |

| SMILES | HLM QH [%] [1] [%] | IC50 [2] [µM] | MBI 3A4 [%] [3] [%] |
| --- | --- | --- | --- |
| C[C@H](Oc1cc(NCC2COC2)nc(-c2noc3c2CCC[C@@]32CCCc3sc(N)c(C#N)c32)n1)[C@@H]1CCCN1C [II-11] | 36 | 0.568 |  |
| C[C@H](Oc1cc(Nc2nccs2)nc(-c2noc3c2CCC[C@@]32CCCc3sc(N)c(C#N)c32)n1)[C@@H]1CCCN1C [II-12] | <24 | 1.13 |  |
| C[C@H](Oc1cc(Nc2ncco2)nc(-c2noc3c2CCC[C@@]32CCCc3sc(N)c(C#N)c32)n1)[C@@H]1CCCN1C [II-13] | <24 | 0.5 | 52 |
| C[C@H](Oc1cc(Nc2cnccn2)nc(-c2noc3c2CCC[C@@]32CCCc3sc(N)c(C#N)c32)n1)[C@@H]1CCCN1C [II-14] | <24 | 0.96 | 67 |
| C[C@H](Oc1cc(Nc2ccncn2)nc(-c2noc3c2CCC[C@@]32CCCc3sc(N)c(C#N)c32)n1)[C@@H]1CCCN1C [II-15] | <24 | 0.708 | 64 |
| C[C@H](Oc1cc(Nc2ccccn2)nc(-c2noc3c2CCC[C@@]32CCCc3sc(N)c(C#N)c32)n1)[C@@H]1CCCN1C [II-16] | 42 |  | 48 |
| C[C@H](Oc1cc(Nc2ncccn2)nc(-c2noc3c2CCC[C@@]32CCCc3sc(N)c(C#N)c32)n1)[C@@H]1CCCN1C [II-17] | <24 | 0.297 | 75 |
| C[C@H](Oc1cc(Nc2cccnn2)nc(-c2noc3c2CCC[C@@]32CCCc3sc(N)c(C#N)c32)n1)[C@@H]1CCCN1C [II-18] | 41 | 1.12 | 64 |
| C[C@H](Oc1cc(O[C@H]2CN(C)C(C)(C)C2)nc(-c2noc3c2CCC[C@@]32CCCc3sc(N)c(C#N)c32)n1)[C@@H]1CCCN1C [II-19] | <24 | 0.344 |  |
| C[C@H](Oc1cc(N(C)CCN(C)C)nc(-c2noc3c2CCC[C@@]32CCCc3sc(N)c(C#N)c32)n1)[C@@H]1CCCN1C [II-20] | <24 | 0.139 |  |
| C[C@H](Oc1cc(OCC2(N(C)C)CC2)nc(-c2noc3c2CCC[C@@]32CCCc3sc(N)c(C#N)c32)n1)[C@@H]1CCCN1C [II-21] | 48 | 0.186 | 76 |
| C[C@H](Oc1cc(OCC2(N(C)C)COC2)nc(-c2noc3c2CCC[C@@]32CCCc3sc(N)c(C#N)c32)n1)[C@@H]1CCCN1C [II-22] | 53 | 0.039 | 78 |
| COc1c(OCC2(N(C)C)COC2)nc(-c2noc3c2CCC[C@@]32CCCc3sc(N)c(C#N)c32)nc1O[C@@H](C)[C@@H]1CCCN1C [II-25] | 46 | 0.035 | 69 |
| C[C@H]1CN(C)CCCN1c1cc(O[C@@H]2CNC2(C)C)nc(-c2noc3c2CCC[C@@]32CCCc3sc(N)c(C#N)c32)n1 [II-28] | 26 | 3.38 | 65 |
| C[C@H](Oc1cc(O[C@@H]2CNC[C@@H]2F)nc(-c2noc3c2CCC[C@@]32CCCc3sc(N)c(C#N)c32)n1)[C@@H]1CCCN1C [II-29] | 28 | 0.216 |  |
| CO[C@@H]1C[C@@H]([C@H](C)Oc2cc(O[C@@H]3CNC3(C)C)nc(-c3noc4c3CCC[C@@]43CCCc4sc(N)c(C#N)c43)n2)N(C)C1 [II-30] | 37 | 0.13 |  |
| C[C@H](Oc1cc(O[C@@H]2CNC2(C)C)nc(-c2noc3c2CCC[C@@]32CCCc3sc(N)c(C#N)c32)n1)[C@@H]1C[C@@H](F)CN1C [II-31] | 37 | 0.202 |  |
